ChEMBL document CHEMBL5131499, “Design, synthesis and glycosidase inhibition of C-4 branched LAB and DAB derivatives” (Eur J Med Chem, 2022)

How the values were obtained:
[1] = target: Alpha-galactosidase (Coffea arabica) (UniProt Q42656); assay: Inhibition of coffee beans alpha-galactosidase assessed as release of p-nitrophenol at 1000 uM using p-nitrophenyl glycoside as substrate by spectrometric assay relative to control
[2] = target: Sucrase-isomaltase, intestinal (Rattus norvegicus, UniProt P23739); assay: Inhibition of rat intestinal sucrase assessed as release of p-nitrophenol using p-nitrophenyl glycoside as substrate by spectrometric assay
Escherichia coli = assay: Inhibition of Escherichia coli beta-glucuronidase assessed as release of p-nitrophenol at 1000 uM using p-nitrophenyl glycoside as substrate by spectrometric assay relative to control
Bos taurus [3] = species on record: Bos taurus; assay: Inhibition of bovine liver beta-glucronidase assessed as release of p-nitrophenol at 1000 uM using p-nitrophenyl glycoside as substrate by spectrometric assay relative to control
Bos taurus [4] = species on record: Bos taurus; assay: Inhibition of bovine liver beta-glucosidase assessed as release of p-nitrophenol at 1000 uM using p-nitrophenyl glycoside as substrate by spectrometric assay relative to control
[5] = target: T1, Lysosomal alpha-glucosidase (Homo sapiens, UniProt P10253); assay: Inhibition of human lysosomal alpha glucosidase assessed as release of p-nitrophenol at 1000 uM using p-nitrophenyl glycoside as substrate by spectrometric assay relative to control
[6] = Inhibition of yeast alpha-glucosidase assessed as release of p-nitrophenol using p-nitrophenyl glycoside as substrate by spectrometric assay; parameters: species or system Saccharomyces cerevisiae
Penicillium decumbens = assay: Inhibition of Penicillium decumbens alpha-L-rhamnosidase assessed as release of p-nitrophenol at 1000 uM using p-nitrophenyl glycoside as substrate by spectrometric assay relative to control
Aspergillus niger = assay: Inhibition of Aspergillus niger amyloglucosidase assessed as release of p-nitrophenol at 1000 uM using p-nitrophenyl glycoside as substrate by spectrometric assay relative to control
Sus scrofa = species on record: Sus scrofa; assay: Inhibition of porcine kidney alpha-trehalase assessed as release of p-nitrophenol at 1000 uM using p-nitrophenyl glycoside as substrate by spectrometric assay relative to control
Helix pomatia = assay: Inhibition of snail beta-mannosidase assessed as release of p-nitrophenol at 1000 uM using p-nitrophenyl glycoside as substrate by spectrometric assay relative control
Bos taurus [7] = species on record: Bos taurus; assay: Inhibition of bovine liver beta-galactosidase assessed as release of p-nitrophenol at 1000 uM using p-nitrophenyl glycoside as substrate by spectrometric assay relative to control
Oryza sativa = assay: Inhibition of rice alpha-glucosidase assessed as release of p-nitrophenol at 1000 uM using p-nitrophenyl glycoside as substrate by spectrometric assay relative to control
Prunus dulcis = assay: Inhibition of almond beta-glucosidase assessed as release of p-nitrophenol at 1000 uM using p-nitrophenyl glycoside as substrate by spectrometric assay relative to control
Rattus norvegicus = species on record: Rattus norvegicus; assay: Inhibition of rat intestinal alpha-trehalase assessed as release of p-nitrophenol at 1000 uM using p-nitrophenyl glycoside as substrate by spectrometric assay relative to control
[8] = target: T2, Tissue alpha-L-fucosidase (Bos taurus) (UniProt Q2KIM0); assay: Inhibition of bovine kidney alpha-L-fucosidase assessed as release of p-nitrophenol at 1000 uM using p-nitrophenyl glycoside as substrate by spectrometric assay relative to control
T2 sequence (whole entry): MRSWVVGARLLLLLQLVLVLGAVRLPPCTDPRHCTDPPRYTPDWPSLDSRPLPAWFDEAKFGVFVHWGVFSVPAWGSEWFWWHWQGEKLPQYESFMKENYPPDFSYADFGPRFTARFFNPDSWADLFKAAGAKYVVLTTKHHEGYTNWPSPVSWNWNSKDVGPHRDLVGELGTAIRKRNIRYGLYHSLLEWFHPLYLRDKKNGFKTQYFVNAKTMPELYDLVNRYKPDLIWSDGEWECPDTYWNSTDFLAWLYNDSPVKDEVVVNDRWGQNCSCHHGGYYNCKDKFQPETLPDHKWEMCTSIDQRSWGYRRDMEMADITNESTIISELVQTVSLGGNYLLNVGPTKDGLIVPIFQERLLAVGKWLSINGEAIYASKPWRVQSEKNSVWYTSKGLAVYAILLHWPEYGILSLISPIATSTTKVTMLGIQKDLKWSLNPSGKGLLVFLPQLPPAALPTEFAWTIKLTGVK

[9] = target: T3, Alpha-mannosidase (Canavalia ensiformis) (UniProt C0HJB3); assay: Inhibition of jack bean alpha-mannosidase assessed as release of p-nitrophenol at 1000 uM using p-nitrophenyl glycoside as substrate by spectrometric assay relative to control
T3 sequence (whole entry): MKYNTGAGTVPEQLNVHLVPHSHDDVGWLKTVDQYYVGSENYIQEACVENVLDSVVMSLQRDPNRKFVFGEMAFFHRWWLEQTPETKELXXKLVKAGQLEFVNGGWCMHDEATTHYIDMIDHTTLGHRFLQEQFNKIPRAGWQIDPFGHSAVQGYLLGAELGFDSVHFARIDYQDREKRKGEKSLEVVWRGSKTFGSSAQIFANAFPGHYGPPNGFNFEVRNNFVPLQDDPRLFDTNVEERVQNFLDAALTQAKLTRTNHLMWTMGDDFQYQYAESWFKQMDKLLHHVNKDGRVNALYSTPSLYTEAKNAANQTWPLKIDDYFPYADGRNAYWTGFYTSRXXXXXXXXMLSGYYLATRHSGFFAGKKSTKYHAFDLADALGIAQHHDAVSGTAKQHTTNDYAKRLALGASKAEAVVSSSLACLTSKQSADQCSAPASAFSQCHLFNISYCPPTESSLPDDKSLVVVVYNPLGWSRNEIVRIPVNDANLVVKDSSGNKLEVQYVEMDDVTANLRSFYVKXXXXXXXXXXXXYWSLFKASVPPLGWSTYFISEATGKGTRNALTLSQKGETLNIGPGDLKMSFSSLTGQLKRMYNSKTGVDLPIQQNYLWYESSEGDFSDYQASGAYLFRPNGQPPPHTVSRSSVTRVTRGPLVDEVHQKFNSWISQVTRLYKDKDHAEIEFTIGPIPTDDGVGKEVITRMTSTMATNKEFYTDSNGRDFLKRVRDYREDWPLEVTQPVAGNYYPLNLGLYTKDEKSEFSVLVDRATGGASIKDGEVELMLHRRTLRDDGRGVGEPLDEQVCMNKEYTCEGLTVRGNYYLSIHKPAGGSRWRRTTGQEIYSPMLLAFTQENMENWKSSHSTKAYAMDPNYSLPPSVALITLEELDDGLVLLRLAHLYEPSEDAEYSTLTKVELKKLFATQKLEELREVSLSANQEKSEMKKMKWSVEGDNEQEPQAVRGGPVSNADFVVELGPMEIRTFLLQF

[10] = Inhibition of rice alpha-glucosidase assessed as release of p-nitrophenol using p-nitrophenyl glycoside as substrate by spectrometric assay; parameters: species or system Oryza sativa
[11] = target: T1, Lysosomal alpha-glucosidase; assay: Inhibition of human lysosomal alpha glucosidase assessed as release of p-nitrophenol using p-nitrophenyl glycoside as substrate by spectrometric assay

Sequence of Sucrase-isomaltase, intestinal (P23739 1-1013 limits assumed): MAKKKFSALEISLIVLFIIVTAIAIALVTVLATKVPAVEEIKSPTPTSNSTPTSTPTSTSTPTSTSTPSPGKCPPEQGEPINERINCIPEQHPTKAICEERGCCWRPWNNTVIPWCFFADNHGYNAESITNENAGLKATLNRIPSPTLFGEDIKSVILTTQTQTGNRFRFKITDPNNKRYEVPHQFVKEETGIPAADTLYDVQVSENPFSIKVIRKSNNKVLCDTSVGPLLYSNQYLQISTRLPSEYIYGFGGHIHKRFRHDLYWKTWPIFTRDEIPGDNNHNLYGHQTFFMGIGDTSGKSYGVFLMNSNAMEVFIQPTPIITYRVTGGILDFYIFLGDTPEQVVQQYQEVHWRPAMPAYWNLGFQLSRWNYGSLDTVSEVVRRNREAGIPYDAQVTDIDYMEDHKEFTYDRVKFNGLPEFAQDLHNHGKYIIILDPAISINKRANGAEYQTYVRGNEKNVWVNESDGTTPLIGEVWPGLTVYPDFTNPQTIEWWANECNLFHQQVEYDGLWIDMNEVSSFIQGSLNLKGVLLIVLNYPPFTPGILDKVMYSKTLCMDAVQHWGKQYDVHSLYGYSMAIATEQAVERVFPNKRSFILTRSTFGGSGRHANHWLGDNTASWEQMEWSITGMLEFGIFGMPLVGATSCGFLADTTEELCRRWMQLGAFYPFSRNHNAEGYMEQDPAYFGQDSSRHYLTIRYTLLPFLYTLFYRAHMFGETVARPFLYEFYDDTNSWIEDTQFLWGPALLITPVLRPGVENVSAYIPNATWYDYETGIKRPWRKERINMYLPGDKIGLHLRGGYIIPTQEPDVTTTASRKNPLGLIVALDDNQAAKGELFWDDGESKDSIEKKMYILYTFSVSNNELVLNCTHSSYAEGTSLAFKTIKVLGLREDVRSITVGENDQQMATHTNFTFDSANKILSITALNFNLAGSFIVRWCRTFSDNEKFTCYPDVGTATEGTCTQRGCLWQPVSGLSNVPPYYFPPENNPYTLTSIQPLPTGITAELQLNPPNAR
Sequence of Sucrase-isomaltase, intestinal (P23739 1014-1841 limits assumed): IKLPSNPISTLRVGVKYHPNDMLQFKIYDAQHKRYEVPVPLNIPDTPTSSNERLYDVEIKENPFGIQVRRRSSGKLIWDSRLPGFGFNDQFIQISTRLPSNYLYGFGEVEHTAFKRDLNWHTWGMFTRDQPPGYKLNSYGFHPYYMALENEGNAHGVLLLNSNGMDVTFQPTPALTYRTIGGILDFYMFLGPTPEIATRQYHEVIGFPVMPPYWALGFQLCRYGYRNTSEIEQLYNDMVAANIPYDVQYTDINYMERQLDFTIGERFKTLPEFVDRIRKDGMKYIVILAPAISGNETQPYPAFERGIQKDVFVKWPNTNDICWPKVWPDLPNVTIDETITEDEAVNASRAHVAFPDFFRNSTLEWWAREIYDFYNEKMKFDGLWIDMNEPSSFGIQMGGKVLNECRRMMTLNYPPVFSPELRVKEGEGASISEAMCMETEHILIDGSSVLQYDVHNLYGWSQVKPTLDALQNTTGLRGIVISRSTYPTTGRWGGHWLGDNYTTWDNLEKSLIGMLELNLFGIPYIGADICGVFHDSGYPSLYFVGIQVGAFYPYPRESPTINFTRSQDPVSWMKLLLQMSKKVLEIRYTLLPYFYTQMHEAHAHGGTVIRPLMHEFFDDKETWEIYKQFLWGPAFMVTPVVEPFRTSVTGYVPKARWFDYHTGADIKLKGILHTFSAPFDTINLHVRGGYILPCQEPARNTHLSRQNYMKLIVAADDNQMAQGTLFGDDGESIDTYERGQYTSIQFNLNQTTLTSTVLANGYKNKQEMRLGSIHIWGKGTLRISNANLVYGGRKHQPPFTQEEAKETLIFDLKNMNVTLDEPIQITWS
Sequence of Alpha-galactosidase (Coffea arabica) (Q42656 16-378 limits assumed): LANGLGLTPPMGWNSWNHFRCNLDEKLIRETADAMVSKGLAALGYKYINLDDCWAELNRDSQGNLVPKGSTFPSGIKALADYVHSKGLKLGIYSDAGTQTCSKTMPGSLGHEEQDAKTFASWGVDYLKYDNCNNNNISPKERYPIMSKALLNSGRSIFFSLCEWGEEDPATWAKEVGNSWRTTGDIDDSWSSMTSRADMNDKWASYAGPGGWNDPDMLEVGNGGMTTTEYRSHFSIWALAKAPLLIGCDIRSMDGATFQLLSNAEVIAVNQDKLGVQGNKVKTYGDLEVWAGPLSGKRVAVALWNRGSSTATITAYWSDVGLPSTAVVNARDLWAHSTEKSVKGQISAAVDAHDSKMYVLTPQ

Structure (SMILES) | inhibition [1] [%] | IC50 [2] [µM] | inhibition (Escherichia coli) [%] | inhibition (Bos taurus [3]) [%] | inhibition (Bos taurus [4]) [%] | inhibition [5] [%] | IC50 [6] [µM] | inhibition (Penicillium decumbens) [%] | inhibition (Aspergillus niger) [%] | inhibition (Sus scrofa) [%] | inhibition (Helix pomatia) [%] | inhibition (Bos taurus [7]) [%] | inhibition (Oryza sativa) [%] | inhibition (Prunus dulcis) [%] | inhibition (Rattus norvegicus) [%] | inhibition [8] [%] | inhibition [9] [%] | IC50 [10] [µM] | IC50 [11] [µM]
OC[C@@H]1NC[C@H](O)[C@H]1O |  |  |  |  | < 50 |  |  |  |  |  |  |  |  | < 50 |  |  |  |  | 
Cc1ccc([C@]2(CO)NC[C@@H](O)[C@@H]2O)cc1 | 1.6 | 3.4 | 0 | 8.7 | 29.1 | 21.3 | 212 | 7.4 | 8.3 | 0 | 0 | 35 | 29.1 | 8.7 | 12.9 | 0 | 0 |  | 
OC[C@]1(c2c(F)c(F)c(F)c(F)c2F)NC[C@H](O)[C@H]1O |  | 4.1 | 2.6 | 3.6 | 3.8 | 6.9 | 528 | 2 | 4.4 | 2 | 0 | 3.7 | 0 | 4.6 | 40.2 | 0 | 6.6 |  | 
OC[C@]1(c2ccc(F)cc2)NC[C@H](O)[C@H]1O | 0 | 2.8 | 3 | 10.9 | 0.4 | 8.3 | 305 | 0 | 0 | 4 | 0 | 0 | 6.4 | 4.6 | 27 | 0 | 6.6 |  | 
COc1ccc([C@]2(CO)NC[C@@H](O)[C@@H]2O)cc1OC | 0 | 4.1 | 0 | 17.5 | 22.2 | 11.1 | 243 | 0 | 0.5 | 0.8 | 0 | 24.3 | 11.4 | 0 | 0 | 0 | 0 |  | 
OC[C@@]1(c2c(F)c(F)c(F)c(F)c2F)NC[C@@H](O)[C@@H]1O | 0 | 2.5 | 0 | 18.4 | 33 | 18.5 | 388 | 0 | 7.8 | 0 | 0 | 38.1 | 19.5 | 5.2 | 14.1 | 3.8 | 0 |  | 

More lines, now with the values ahead:

inhibition [1] [%] | IC50 [2] [µM] | inhibition (Escherichia coli) [%] | inhibition (Bos taurus [3]) [%] | inhibition (Bos taurus [4]) [%] | inhibition [5] [%] | IC50 [6] [µM] | inhibition (Penicillium decumbens) [%] | inhibition (Aspergillus niger) [%] | inhibition (Sus scrofa) [%] | inhibition (Helix pomatia) [%] | inhibition (Bos taurus [7]) [%] | inhibition (Oryza sativa) [%] | inhibition (Prunus dulcis) [%] | inhibition (Rattus norvegicus) [%] | inhibition [8] [%] | inhibition [9] [%] | IC50 [10] [µM] | IC50 [11] [µM] | Structure (SMILES)
0 | 2.5 | 0 | 23.3 | 15.8 | 27.1 | 64 | 0 | 6.4 | 0 | 0 | 19 | 32.3 | 0 | 0 | 0.5 | 0 |  |  | COc1ccc([C@@]2(CO)NC[C@H](O)[C@H]2O)cc1OC
1.6 | 2.2 | 0 | 8.2 | 12.8 | 46 | 19 | 5.5 | 5 | 3.8 | 0 | 26.5 | 47.3 | 1.7 | 0.6 | 1.6 | 0 |  |  | COc1cccc([C@@]2(CO)NC[C@H](O)[C@H]2O)c1
3.6 | 0.18 | 1.8 | 12.6 | 27.6 |  | 12 | 4.5 | 11.5 | 12.9 | 0 | 40.3 |  | 14.8 | 1.2 | 0 | 3.4 | 285 | 376 | OC[C@]1(c2ccc(O)cc2)NC[C@H](O)[C@H]1O
0 | 0.2 | 1.5 | 16.8 | 8.4 |  | 70 | 0 | 0 | 4.4 | 0.8 | 8.6 |  | 0.6 | 25.8 | 0 | 6.6 | 646 | 714 | OC[C@@]1(c2ccc(F)cc2)NC[C@@H](O)[C@@H]1O
 | 0.95 | 0 | 19.4 | 11.3 |  | 60 | 0 | 1.4 | 8.3 | 0 | 16.4 |  | 0 | 10 | 0 | 0 | 817 | 491 | OC[C@]1(c2cccc(F)c2)NC[C@H](O)[C@H]1O
1.2 | 0.74 | 0.4 | 19.9 | 10.8 |  | 64 | 5.5 | 9.2 | 4.5 | 0 | 20.4 |  | 8.7 | 0 | 0 | 2.2 | 337 | 372 | OC[C@@]1(c2ccc(O)cc2)NC[C@@H](O)[C@@H]1O
